Here are results for 6 compounds from US12637411B2, “Structurally modified opioids for prevention and treatment of diseases and conditions” (University of Padova, priority 2019, dated 2026).

The structures appear in SMILES notation.

Data set [1] deals with ARPE-19 cells. Description: ARPE-19 cell viability after L-glutamate. To be noted: pretreatment before 1 mM L-glutamate; dextromethadone 30 microMolar.
Data set [2] has as its system ARPE-19 cells. Description: Relative gene expression (NMDAR1, p65, TNF-α, IL-6) in ARPE-19 cells. In kind it is cell-based. The following applies: pretreatment before 1 mM L-glutamate. Here is the method: Once the effect of NMDAR antagonists on nuclear translocation of p65 was verified, in order to confirm their anti-inflammatory effect, the present inventors investigated the changes of gene expression levels of the pro-inflammatory cytokines IL-6 (interleukin-6) and TNF-α, the transcription factor p65 and the NMDA receptor.
The first gene for which the level of gene expression was assessed is the 1A subunit of NMDAR receptor dimer (known as NMDAR1).

Data set [3] deals with ARPE-19 cells. Nature of the data set: ROS production in ARPE-19 cells. The following applies: 1 mM L-Glu + 30 μM antagonist; statistical significance not reached.
Description: This study was conducted also on the retinal cell line ARPE-19 in order to verify how NMDAR activation and blockade influence ROS production.
The test system of another data set is NMDAR. To be noted: cited from earlier work; for trapping: Zanos et al. 2018.
The subject of another data set is GluR1 and PSD95. Nature of the data set: mTORC1 signaling proteins and synaptic proteins in PFC and hippocampus. To be noted: rat models of depression.
Data set [4] is described as follows: Phase 1 Multiple Ascending Dose (MAD) study. The class given is in vivo, healthy opioid-naïve volunteers. Here is the method:
The objective of the Multiple Ascending Dose (MAD) study was to establish PK, PD, and safety of once daily, 10-day administration. Administration involved cohorts of 25, 50, 75 mg and N=24.

Data set [5] can be described thus: Novelty Suppressed Feeding Test (NSFT). To be noted: 72 hr after administration, vs. vehicle.
In data set [6] the test system is brain derived neurotrophic factor (BDNF). The following applies: 25 mg, 4 hours after administration, vs pre-treatment.
Data set [7] is described as follows: Phase 1 Single Ascending Dose (SAD) study. Here is the method:
The Single Ascending Dose (SAD) study included a parallel group, double-blind, placebo-controlled design. The objectives of the study were to establish PK, PD, and safety of single dose administration. Administration involved cohorts of 5, 20, 60, 100, 150, 200 mg and N=42.

Data set [8] in a line: Female Urine Sniffing Test (FUST). The following applies: 24 hr after administration, vs. vehicle.
The nature of data set [9]: Chronic Unpredictable Stress (CUS) protocol with SPT, FUST, NSFT. The following applies: single dose.
Excerpt: The present inventors also performed behavioral analysis of the effect of both d-methadone and ketamine on rats exposed to a Chronic Unpredictable Stress (CUS) protocol.
The next data set in a line: Forced Swim Test (FST). In kind it is in vivo. To be noted: drug treated vs. vehicle treated animals; d-methadone 10, 20, 40 mg/kg.
The conditions of data set [10]: compared to dextromethadone and deuterated dextromethadone (D9, D10, D16), PCT/US2018/016159; cited from earlier work.

Excerpt for GluR1 and PSD95: Levels of phospho proteins were normalized to total proteins and levels of synaptic proteins were normalized the GAPDH. Results are the mean±S.E.M., n=10-12/group.

For the compound `C[C@]12N[C@H](Cc3ccccc31)c1ccccc12` [MK-801], in the data set on ARPE-19 cells [1], the “effect on L-glutamate-induced cell viability decrease” value is on record as “protective effect on cell viability”. Moreover, in the data set with ARPE-19 cells [2], the IL-6 gene expression entry is “tendency to decrease”, the NMDAR1 gene expression result is reported as “only slightly evident” and the TNF-α gene expression entry is reported as “restored to normal levels”. Moreover, in the data set with ARPE-19 cells [3], the ROS production entry is reported as “tendency to decrease”. Also, in the data set with NMDAR, the trapping is reported as 100%.

As to `CC12CC3CC(C)(C1)CC(N)(C3)C2` [Memantine, memantine], in the data set on NMDAR (NMDA receptor block), the off rate is around 5 s and the on rate was 1 s.

In the case of `c1ccc(C2(N3CCCCC3)CCCCC2)cc1` [PCP], the trapping in the data set with NMDAR is given as 98%.

`CCC(=O)C(C[C@H](C)N(C)C)(c1ccccc1)c1ccccc1` [dextromethadone]: in the data set with ARPE-19 cells [1], the “effect on L-glutamate-induced cell viability decrease” value is on record as “protective effect on cell viability”. Further, in the data set on ARPE-19 cells [2], the IL-6 gene expression entry is “tendency to decrease”, the NMDAR1 gene expression result was “up to 9 times when compared to the expression level of vehicle-treated cells”, the TNF-α gene expression result was “restored to normal levels” and the p65 gene expression entry is listed as “decrease in gene expression of p65”. In addition, in the data set with GluR1 and PSD95, the “levels of GluR1 and PSD95” value is “increase”. In [4] (at the tested doses (SAD and MAD)), the “dissociative or psychotomimetic adverse events” value is “did not cause dissociative or psychotomimetic adverse events”. Besides, in data set [4] (daily doses up to 75 mg for 10 days (single doses up to 150 mg)), the tolerability entry is given as “well tolerated”. For the same compound, in [4] (once daily 25, 50, 75 mg, 10 days), the “PK: Cmax, AUCtau Day 1; Cmax, AUCtau, Css Day 10” value was “linear PK with dose proportionality”. Besides, the “effect in the Novelty Suppressed Feeding Test” value in data set [5] is “significant improvements”. Further, the “subjects with an increase in BDNF levels post treatment” value in data set [6] is on record as 6 of 6. The “Maximum tolerated dose (MTD)” value in data set [7] (single dose) is listed as 150 mg. In addition, the opioid effects entry in data set [7] (up to 150 mg) is listed as “no clinically significant opioid effects”. In the data set with ARPE-19 cells [3], the ROS production entry is “tendency to decrease”. In addition, in data set [8], the “effect in the Female Urine Sniffing Test” value is given as “significant improvements”. For the same compound, the “behavioral effects of CUS (SPT, FUST, NSFT)” value in data set [9] is listed as “prevented the behavioral effects of CUS”.

For `CNC1(c2ccccc2Cl)CCCCC1=O` (stereo not shown) [Ketamine, ketamine], in the data set “Forced Swim Test (FST)”, the “effect in the Forced Swim Test (immobility, climbing, swimming counts)” value is “significant improvements”. In addition, the “effect in the Novelty Suppressed Feeding Test” value in data set [5] was “significant improvements”. The “effect in the Female Urine Sniffing Test” value in data set [8] is recorded as “significant improvements”. In data set [9], the “behavioral effects of CUS (SPT, FUST, NSFT)” value is “prevented the behavioral effects of CUS”. Besides, in the data set with NMDAR, the trapping was 86%.

As for `COc1ccc2c(c1)[C@]13CCCC[C@@H]1[C@H](C2)N(C)CC3` [Dextromethorphan, dextromethorphan], the half-life entry in data set [10] is on record as “significantly shorter half-life”.
